# According to patent US7964573B2, “Regulating expression of transient receptor potential channel genes” (The Regents of the University of California, priority 2005, dated 2011):
# Entries after “also recorded” stand apart in the source; their conditions may differ.
# How the values were obtained:
# TRPC6 [1] = assay: siRNA suppression of TRPC6 protein and mRNA levels in COS-7 cells; assay type: cell-based
# Text: (§1) In separate experiments, siRNA was used to prevent expression and translation of the TRPC6 gene in vitro. Several fragments of open reading frames in the TRPC6 gene were identified which suppressed expression of TRPC6 protein and mRNA levels. […] A scrambled siRNA vector served as a non-silencing control.
# IPAH-PASMC = assay: [3H]-thymidine incorporation (proliferation) in IPAH-PASMC; assay type: cell-based, human; conditions: proliferating IPAH-PASMC, transfected
# Description: (§2) Another aspect relates to the use of siRNA to inhibit the expression of TRPC6 gene. Human PASMC were isolated and cultured from normal subjects (normal PASMC) and subjects with IPAH (IPAH-PASMC). Levels of canonical TRP (TRPC) isoforms (mRNA and protein) were measured using RT-PCR and Western blot analysis. In addition, levels of TRPC6 in vivo were measured and compared with levels of Ki67, a nuclear protein expressed during S and G2/M phase of the cell cycle, using in situ immunofluorescence staining of proliferating PASMC (see Kuga et al. (1996) Circ. Res. 79:14-19). Cell cycle phase was determined by BrdU uptake and by [^3H]-thymidine incorporation into DNA. PASMC were incubated with [^3H]-thymidine for 16 hours following 24 hours of growth arrest and 48 hours of growth induction and measuring percent extent of radiolabel incorporation into precipitated DNA.
# as §1
# TRPC6 [2] = assay: TRPC6 mRNA and protein expression in IPAH-PASMC after siRNA transfection (RT-PCR, Western blot); assay type: cell-based, human; conditions: for TRPC6 protein expression: IPAH-PASMC, transfected
# Description: as §2, §1
substance,measurement,setting,value
"TRPC6 siRNA-2: siRNA against the TRPC6 gene, sequence AAGGTCTTTATGCAATTGCTG (SEQ ID NO: 5) (listed as DNA, chemistry not given here)",suppression of expression of TRPC6 protein and mRNA levels,TRPC6 [1],most effective
same,[3H]-thymidine incorporation (proliferation),IPAH-PASMC; listed as TRPC6-siRNA,markedly attenuated
same,[3H]-thymidine incorporation (proliferation),IPAH-PASMC; listed as TRPC6 siRNA,significantly decreased; also recorded: attenuates
same,TRPC6 protein expression,TRPC6 [2],significantly decreased; also recorded: attenuates
same,TRPC6 protein expression,TRPC6 [2]; listed as TRPC6 siRNA (SEQ ID NO: 5),significantly inhibits
same,TRPC6 mRNA expression level,TRPC6 [2]; PASMC from patients with IPAH,significantly inhibits
